Laboratory results taken from the supplement of paper PMC6045584.
± gives the standard deviation of the averaged measurements.

Assays:
[1] = compound: Cc1nc(Nc2n[nH]c3c2CN(C(=O)N[C@H](CN(C)C)c2ccccc2)C3(C)C)c2sccc2n1; experiment: surviving fraction relative to DMSO-only wells; higher = less growth inhibition; conditions: exposure time: 5 days
In short: (§1)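 Tumour cell lines were seeded in log phase at 250–500 cells per well into 384-well plates. Starting 24 hours later, inhibitors were present continuously for five days at 0.5, 1, 5, 10, 50, 100, 500 and 1000 nM. Surviving fraction, from CellTiter-Glo luminescence, is normalised to the median of DMSO-only wells. Three screens per line were required, with replicate Pearson r >0.7 and median Z' >0.3 for a line to be kept.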

[2] = compound: CO[C@H]1C[C@@H]2CC[C@@H](C)[C@@](O)(O2)C(=O)C(=O)N2CCCC[C@H]2C(=O)O[C@H]([C@H](C)C[C@@H]2CC[C@@H](OCCO)[C@H](OC)C2)CC(=O)[C@H](C)/C=C(\C)[C@@H](O)[C@@H](OC)C(=O)[C@H](C)C[C@H](C)/C=C/C=C/C=C/1C [EVEROLIMUS]; experiment: as above; conditions: exposure time: 5 days
In short: as §1

Test System	surviving fraction ([1]; 0.5 nM)	surviving fraction ([1]; 1 nM)	surviving fraction ([1]; 5 nM)	surviving fraction ([1]; 10 nM)	surviving fraction ([1]; 50 nM)	surviving fraction ([1]; 100 nM)	surviving fraction ([1]; 500 nM)	surviving fraction ([1]; 1000 nM)	surviving fraction ([2]; 0.5 nM)	surviving fraction ([2]; 1 nM)	surviving fraction ([2]; 5 nM)	surviving fraction ([2]; 10 nM)	surviving fraction ([2]; 50 nM)	surviving fraction ([2]; 100 nM)	surviving fraction ([2]; 500 nM)	surviving fraction ([2]; 1000 nM)
HT1080 SOFT TISSUE	0.98 ± 0.024	0.859 ± 0.018	0.295 ± 0.0038	0.249 ± 0.013	0.194 ± 0.0046	0.171 ± 0.0076	0.111 ± 0.015	0.087 ± 0.0078	1.04 ± 0.029	0.991 ± 0.013	0.733 ± 0.039	0.577 ± 0.045	0.496 ± 0.019	0.48 ± 0.029	0.477 ± 0.036	0.477 ± 0.036
SUM44 BREAST	1.08 ± 0.03	1.05 ± 0.065	1 ± 0.039	0.972 ± 0.041	0.983 ± 0.059	0.929 ± 0.038	0.735 ± 0.023	0.541 ± 0.023	0.853 ± 0.24	0.723 ± 0.16	0.718 ± 0.12	0.713 ± 0.12	0.819 ± 0.25	0.804 ± 0.16	0.723 ± 0.17	0.711 ± 0.11
OSHN BONE	1.06 ± 0.037	1.01 ± 0.019	0.4963 ± 0.004	0.361 ± 0.026	0.31 ± 0.017	0.347 ± 0.031	0.366 ± 0.015	0.279 ± 0.018	1.06 ± 0.014	1.03 ± 0.038	0.991 ± 0.035	0.983 ± 0.026	1.05 ± 0.054	1.06 ± 0.024	1.04 ± 0.057	1.06 ± 0.023
PCI30 HEADNECK	0.882 ± 0.021	0.823 ± 0.028	0.579 ± 0.015	0.599 ± 0.038	0.538 ± 0.022	0.514 ± 0.024	0.344 ± 0.014	0.0833 ± 0.019	0.715 ± 0.07	0.6 ± 0.029	0.52 ± 0.027	0.508 ± 0.02	0.5 ± 0.051	0.508 ± 0.025	0.463 ± 0.03	0.468 ± 0.013
MFM223 BREAST	1.11 ± 0.074	1.03 ± 0.049	0.827 ± 0.015	0.637 ± 0.051	0.474 ± 0.021	0.349 ± 0.038	0.14 ± 0.013	0.0562 ± 0.005	0.953 ± 0.069	0.912 ± 0.077	0.73 ± 0.049	0.749 ± 0.082	0.669 ± 0.053	0.638 ± 0.068	0.706 ± 0.076	0.754 ± 0.053
NOS1 BONE	0.922 ± 0.046	0.847 ± 0.078	0.695 ± 0.051	0.657 ± 0.073	0.589 ± 0.062	0.559 ± 0.062	0.272 ± 0.043	0.134 ± 0.0068	0.77 ± 0.073	0.655 ± 0.039	0.607 ± 0.022	0.536 ± 0.048	0.491 ± 0.03	0.461 ± 0.052	0.415 ± 0.019	0.362 ± 0.023
HCC1806 BREAST	0.842 ± 0.06	0.521 ± 0.022	0.0733 ± 0.0085	0.0613 ± 0.0081	0.0497 ± 0.0047	0.0377 ± 0.0055	0.024 ± 0.001	0.0237 ± 0.00058	0.918 ± 0.13	0.911 ± 0.043	0.888 ± 0.085	0.851 ± 0.051	0.784 ± 0.095	0.859 ± 0.083	0.669 ± 0.11	0.74 ± 0.12
SG31 HEADNECK	0.947 ± 0.073	1.01 ± 0.088	0.671 ± 0.076	0.909 ± 0.17	0.456 ± 0.0092	0.609 ± 0.067	0.241 ± 0.024	0.344 ± 0.033	0.931 ± 0.077	0.905 ± 0.11	0.638 ± 0.041	0.62 ± 0.01	0.641 ± 0.035	0.591 ± 0.1	0.539 ± 0.035	0.574 ± 0.047
HMLE3 BREAST	1.01 ± 0.11	0.883 ± 0.026	0.295 ± 0.02	0.144 ± 0.0049	0.0967 ± 0.012	0.092 ± 0.0036	0.066 ± 0.0082	0.055 ± 0.002	1.02 ± 0.065	0.956 ± 0.02	0.813 ± 0.036	0.682 ± 0.016	0.455 ± 0.063	0.402 ± 0.036	0.322 ± 0.044	0.306 ± 0.019
MDAMB361 BREAST	1.028 ± 0.0062	1.13 ± 0.074	1.1 ± 0.065	1.02 ± 0.072	0.837 ± 0.016	0.796 ± 0.054	0.5827 ± 0.004	0.238 ± 0.0081	0.739 ± 0.061	0.815 ± 0.098	0.697 ± 0.0076	0.631 ± 0.049	0.62 ± 0.028	0.584 ± 0.0067	0.547 ± 0.015	0.543 ± 0.039
A549 LUNG	1.03 ± 0.051	0.952 ± 0.064	0.988 ± 0.064	0.578 ± 0.021	0.38 ± 0.033	0.311 ± 0.022	0.2537 ± 0.0015	0.208 ± 0.011	0.962 ± 0.022	0.927 ± 0.018	0.8767 ± 0.0076	0.842 ± 0.017	0.855 ± 0.041	0.826 ± 0.048	0.777 ± 0.0096	0.759 ± 0.058
VP229 BREAST	1.23 ± 0.085	1.15 ± 0.18	0.684 ± 0.099	0.597 ± 0.089	0.484 ± 0.055	0.386 ± 0.036	0.301 ± 0.031	0.311 ± 0.026	0.812 ± 0.056	0.664 ± 0.048	0.645 ± 0.086	0.566 ± 0.051	0.584 ± 0.01	0.541 ± 0.058	0.507 ± 0.061	0.511 ± 0.045
MDAMB436 BREAST	0.952 ± 0.044	1 ± 0.066	0.932 ± 0.07	0.856 ± 0.071	0.718 ± 0.016	0.61 ± 0.061	0.507 ± 0.025	0.432 ± 0.03	0.7 ± 0.022	0.655 ± 0.044	0.598 ± 0.027	0.606 ± 0.039	0.577 ± 0.025	0.589 ± 0.046	0.633 ± 0.057	0.558 ± 0.061
SG43 HEADNECK	1.23 ± 0.11	1.11 ± 0.22	0.921 ± 0.13	0.784 ± 0.34	1.14 ± 0.2	0.959 ± 0.16	0.971 ± 0.055	1.35 ± 0.2	1.18 ± 0.069	0.963 ± 0.053	0.943 ± 0.035	0.833 ± 0.13	0.874 ± 0.073	0.872 ± 0.13	0.908 ± 0.13	0.882 ± 0.071
RDES SOFT TISSUE	0.764 ± 0.075	0.577 ± 0.1	1.16 ± 0.32	1.02 ± 0.14	0.756 ± 0.037	0.763 ± 0.1	0.525 ± 0.044	0.503 ± 0.094	1.09 ± 0.067	1.1 ± 0.099	1.11 ± 0.039	1.11 ± 0.087	0.981 ± 0.049	1.03 ± 0.12	1 ± 0.13	1.04 ± 0.063
SKBR3 BREAST	0.895 ± 0.11	0.834 ± 0.079	0.49 ± 0.027	0.498 ± 0.026	0.454 ± 0.063	0.419 ± 0.045	0.344 ± 0.021	0.1 ± 0.011	0.615 ± 0.048	0.561 ± 0.009	0.414 ± 0.021	0.389 ± 0.015	0.37 ± 0.03	0.316 ± 0.016	0.312 ± 0.021	0.295 ± 0.018
OS25HAL BONE	0.983 ± 0.016	0.954 ± 0.024	0.597 ± 0.036	0.367 ± 0.029	0.281 ± 0.007	0.258 ± 0.015	0.24 ± 0.032	0.218 ± 0.0047	0.863 ± 0.044	0.846 ± 0.0091	0.679 ± 0.029	0.622 ± 0.042	0.598 ± 0.014	0.581 ± 0.039	0.546 ± 0.034	0.52 ± 0.022
S68 BREAST	1.04 ± 0.21	0.77 ± 0.013	0.481 ± 0.066	0.321 ± 0.04	0.288 ± 0.081	0.318 ± 0.0098	0.25 ± 0.014	0.234 ± 0.017	0.839 ± 0.17	0.547 ± 0.045	0.479 ± 0.048	0.434 ± 0.049	0.356 ± 0.06	0.336 ± 0.043	0.26 ± 0.027	0.285 ± 0.024
CME SYNOVIAL	0.982 ± 0.12	1.32 ± 0.047	0.564 ± 0.077	1.42 ± 0.17	0.287 ± 0.018	1.34 ± 0.057	0.325 ± 0.025	1.31 ± 0.06	1.2 ± 0.12	1.2 ± 0.2	1.29 ± 0.071	1.15 ± 0.16	0.885 ± 0.096	0.828 ± 0.066	0.66 ± 0.085	0.77 ± 0.1
CHLA90 AUTONOMIC GANGLIA	0.916 ± 0.055	0.826 ± 0.037	0.58 ± 0.045	0.477 ± 0.018	0.38 ± 0.036	0.331 ± 0.0082	0.233 ± 0.018	0.2 ± 0.011	0.634 ± 0.051	0.512 ± 0.026	0.342 ± 0.021	0.343 ± 0.011	0.372 ± 0.066	0.404 ± 0.091	0.355 ± 0.067	0.344 ± 0.085
